One assay relates to pERK in DLD1 cells. In words: ERK phosphorylation assay after EGF stimulation. The format is cell-based. The following applies: Homo sapiens, DLD-1, compound 2 h, 200 ng/ml hEGF 5 minutes, alphascreen pERK, read-out: ERK phosphorylation inhibition IC50. The protocol: Example-128: ERK Phosphorylation Assay Protocol
Compounds were tested for their ability to inhibit pERK after EGF stimulation in DLD1 cells. Cells were seeded at 0.2 million cells per well in 96 well cell binding tissue culture plate in 100 μL complete media and were allowed to settle overnight (16 to 20 h). On the following day, cells were treated with various concentrations of test compounds for 2 h followed by stimulation with 200 ng/ml hEGF (diluted in PBS) for 5 minutes. Cells were then washed once with PBS and lysed in freshly prepared lysis buffer (provided with alphascreen surefire ERK1/2 p-T202/Y204 assay kit, cat no: TGRESB10K, Perkin Elmer). Lysis was carried out in plate shaker for 10-15 mins. Lysate was transferred to […] white opti-plate (Perkin Elmer) and alphascreen for pERK was carried out as per manufacturer's instructions. Plate was read after 2 h incubation in plate shaker at […] 300 RPM, 25-28° C.

A further assay has as its target T1, hSOS1 and hKRASG12C (Homo sapiens, UniProt Q07889).
T1 sequence (Q07889 564-1049): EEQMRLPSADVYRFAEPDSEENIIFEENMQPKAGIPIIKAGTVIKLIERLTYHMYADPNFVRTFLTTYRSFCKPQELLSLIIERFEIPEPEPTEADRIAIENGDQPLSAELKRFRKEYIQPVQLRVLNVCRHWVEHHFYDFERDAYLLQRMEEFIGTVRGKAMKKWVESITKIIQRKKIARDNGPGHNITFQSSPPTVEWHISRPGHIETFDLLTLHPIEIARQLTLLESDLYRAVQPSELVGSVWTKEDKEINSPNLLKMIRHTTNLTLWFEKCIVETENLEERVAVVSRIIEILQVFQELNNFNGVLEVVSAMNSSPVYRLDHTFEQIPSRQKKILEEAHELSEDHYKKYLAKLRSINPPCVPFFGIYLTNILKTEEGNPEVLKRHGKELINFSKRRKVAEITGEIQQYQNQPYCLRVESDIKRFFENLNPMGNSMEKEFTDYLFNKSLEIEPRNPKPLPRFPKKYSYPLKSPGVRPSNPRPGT
In words: biochemical.

Assay [1] concerns the target T2, hSOS1 mediated nucleotide exchange on hKRASG12C (Homo sapiens, UniProt Q07889).
T2 sequence (Q07889 564-1049): T1 sequence (Q07889 564-1049)
In words: biochemical.
Protocol: Example-127: Guanine Nucleotide Exchange Assay (GNEA)
GNEA assay was conducted to evaluate the effects of compounds on the nucleotide exchange on hKRASG12C mediated by hSOS1. Inhibitory effect of compounds on HIS-hSOS1, 564-1049aa mediated GTP loading onto GST-hKRASG12C, 1-169aa both expressed and purified in-house was assessed using HTRF detection technology in biochemical assay. Compounds were pre-incubated with hSOS1 working solution containing 10-50 nM hSOS1 and 200 nM EDA-GTP-DY-647P1 (Custom manufactured, Jena Biosciences) per well of a 384 well plate (Perkin Elmer, Cat #6007290) for 10 min at 20° C. in the assay buffer containing 10 mM HEPES, pH 7.4, 150 mM NaCl, 5 mM MgCl2, 1 mM DTT, 0.05% BSA fraction V and 0.0025% Igepal. Reaction was initiated by adding working solution of hKRASG12C containing 25-125 nM hKRASG12C and MAb Anti-GST-Tb (#61GSTTLA, Cisbio BioAssays) in assay buffer. Total assay volume was 15 μL. Reaction was continued for 30-60 min at 20° C. HTRF signal was recorded in PHERAStar microplate reader. Ratio of signal obtained at 665 nm and 620 nm was used to compute the percent inhibition of compound as follows.
Where, Positive control=hSOS1+EDA-GTP-DY-647P1+hKRASG12C+MAb Anti-GST-Tb Negative control=EDA-GTP-DY-647P1+hKRASG12C+MAb Anti-GST-Tb

pIC50: −log10 of the molar value.

Protocol for hSOS1 and hKRASG12C: Interaction assay was conducted to evaluate the ability of the compounds to disrupt the protein-protein interactions between hSOS1 and hKRASG12C. Inhibitory effect of compounds on GST-hSOS1, 564-1049aa expressed and purified in-house and HIS-hKRASG12C (R06-32DH, SignalChem) interaction was assessed using HTRF detection technology in biochemical assay. Compounds were pre-incubated with 10-50 nM working solution of hSOS1 per well of a 384 well plate (Perkin Elmer, Cat #6007290) for 10 min at 20° C. in the assay buffer containing 5 mM HEPES, pH 7.4, 150 mM NaCl, 10 mM EDTA, 1 mM DTT, 0.05% BSA fraction V and 0.0025% Igepal. Reaction was initiated by adding 100-300 nM working solution of hKRASG12C in assay buffer. Total assay volume was 15 μL. Reaction was continued for 30-60 min at 20° C. Then detection solution containing MAb Anti-GST-d2 (#61GSTDLA, Cisbio BioAssays) and MAb Anti-HIS-Tb (#61HISTLA, Cisbio BioAssays), all prepared in HTRF detection buffer (#61DB10RDF, Cisbio BioAssays) was added and further incubated for 30-60 min at 20° C. HTRF signal was recorded in PHERAStar microplate reader. Ratio of signal obtained at 665 nm and 620 nm was used to compute the percent inhibition of compound utilizing the following formula:
Positive control=hSOS1+hKRASG12C+MAb Anti-GST-d2+Mab Anti-HIS-Tb Negative control=hKRASG12C+MAb Anti-GST-d2+MAb Anti-HIS-Tb

Take `COCC1CCN(c2cc3c(N[C@H](C)c4cccc(C(F)(F)C(C)(C)O)c4F)nc(C)nc3c3c2CCC3)CC1` [Compound 57, (R)-1,1-difluoro-1-(2-fluoro-3-(1-((6-(4-(methoxymethyl)piperidin-1-yl)-2-methyl-8,9-dihydro-7H-cyclopenta[h]quinazolin-4-yl)amino)ethyl)phenyl)-2-methylpropan-2-ol]: the pIC50 with pERK in DLD1 cells was 6.70 to 9.00; on hSOS1 and hKRASG12C it was 8.00 to 9.00; in assay [1], 7.52 to 9.00.
`COC[C@H]1CN(c2cc3c(N[C@H](C)c4cccc(C(F)(F)C(C)(C)O)c4F)nc(C)nc3c3c2CCC3)CCO1` [Compound 62, 1,1-difluoro-1-(2-fluoro-3-((R)-1-((6-((R)-2-(methoxymethyl)morpholino)-2-methyl-8,9-dihydro-7H-cyclopenta[h]quinazolin-4-yl)amino)ethyl)phenyl)-2-methylpropan-2-ol]: the pIC50 was 6.70 to 9.00 in the assay on pERK in DLD1 cells; 8.00 to 9.00 at hSOS1 and hKRASG12C; 7.52 to 9.00 in assay [1].
As for `Cc1nc(N[C@H](C)c2cc(N)cc(C(F)(F)F)c2)c2cc(N3CCOCC3=O)c3c(c2n1)CCC3` [Compound 83, (R)-4-(4-((1-(3-amino-5-(trifluoromethyl)phenyl)ethyl)amino)-2-methyl-8,9-dihydro-7H-cyclopenta[h]quinazolin-6-yl)morpholin-3-one], the pIC50 in the assay on pERK in DLD1 cells is 6.70 to 9.00; against hSOS1 and hKRASG12C, 7.70 to 7.96; in assay [1] it was 6.89 to 7.15.
Turning to `COCC1(O)CCN(c2cc3c(N[C@H](C)c4cccc(C(F)(F)CO)c4F)nc(C)nc3c3c2CCC3)CC1` [Compound 68, (R)-1-(4-((1-(3-(1,1-difluoro-2-hydroxyethyl)-2-fluorophenyl)ethyl)amino)-2-methyl-8,9-dihydro-7H-cyclopenta[h]quinazolin-6-yl)-4-(methoxymethyl)piperidin-4-ol], the pIC50 is 6.70 to 9.00 in the assay on pERK in DLD1 cells; 8.00 to 9.00 at hSOS1 and hKRASG12C; 7.52 to 9.00 in assay [1].
Turning to `Cc1nc(N[C@H](C)c2cc(N)cc(C(F)(F)F)c2)c2cc(N3CCC(O)(CO)CC3)c3c(c2n1)CCC3` [Compound 84, (R)-1-(4-((1-(3-amino-5-(trifluoromethyl)phenyl)ethyl)amino)-2-methyl-8,9-dihydro-7H-cyclopenta[h]quinazolin-6-yl)-4-(hydroxymethyl)piperidin-4-ol], the pIC50 in the assay with pERK in DLD1 cells is 6.70 to 9.00; at hSOS1 and hKRASG12C, 8.00 to 9.00; in assay [1], 7.52 to 9.00.
As to `Cc1nc(N[C@H](C)c2cccc(C(F)(F)C(C)(C)O)c2F)c2cc(C3(O)CCOCC3)c3c(c2n1)CCC3` [Compound 119, (R)-4-(4-((1-(3-(1,1-difluoro-2-hydroxy-2-methylpropyl)-2-fluorophenyl)ethyl)amino)-2-methyl-8,9-dihydro-7H-cyclopenta[h]quinazolin-6-yl)tetrahydro-2H-pyran-4-ol], the pIC50 with pERK in DLD1 cells was 6.70 to 9.00; against hSOS1 and hKRASG12C, 7.70 to 7.96; in assay [1], 7.15 to 7.51.
For `Cc1nc(N[C@H](C)c2cc(N)cc(C(F)(F)F)c2)c2cc(N3CC[C@](C)(O)C3)c3c(c2n1)CCC3` (single isomer, unassigned) [Compound 55b], the pIC50 with pERK in DLD1 cells was 6.70 to 9.00; on hSOS1 and hKRASG12C, 7.70 to 7.96; in assay [1] it was 6.89 to 7.15.
The corresponding values for `COCC1CCN(c2cc3c(N[C@H](C)c4cc(N)cc(C(F)(F)F)c4)nc(C)nc3c3c2CCC3)CC1` [Compound 54, (R)—N-(1-(3-amino-5-(trifluoromethyl)phenyl)ethyl)-6-(4-(methoxymethyl)piperidin-1-yl)-2-methyl-8,9-dihydro-7H-cyclopenta[h]quinazolin-4-amine] are 6.70 to 9.00, 7.70 to 7.96 and 7.15 to 7.51.
The like results for `Cc1nc(N[C@H](C)c2cc(N)cc(C(F)(F)F)c2)c2cc(N3CCOCC3)c3c(c2n1)CC(C)O3` (mixture of isomers) [Compound 117a, (R/S)—N—((R)-1-(3-amino-5-(trifluoromethyl)phenyl)ethyl)-2,8-dimethyl-6-morpholino-8,9-dihydrofuro[2,3-h]quinazolin-4-amine] were, in that order, 6.70 to 9.00, 8.00 to 9.00 and 7.15 to 7.51.
